ChEMBL document CHEMBL4476875 (2018)
pIC50: −log10 of the molar value.

Legend:
A549 = experiment: Cytotoxicity against human A549 cells assessed as reduction in cell viability incubated for 72 hrs by CCK8 assay; format: functional, cell-based; conditions: A549, 72 h
PC-14 = experiment: Cytotoxicity against human PC14 cells assessed as reduction in cell viability incubated for 72 hrs by CCK8 assay; format: functional, cell-based; conditions: PC-14, 72 h
HCT-116 = experiment: Cytotoxicity against human HCT116 cells assessed as reduction in cell viability incubated for 72 hrs by CCK8 assay; format: functional, cell-based; conditions: HCT-116, 72 h
HFL1 = experiment: Cytotoxicity against human HFL1 cells assessed as reduction in cell viability incubated for 72 hrs by CCK8 assay; format: functional, cell-based; conditions: HFL1, 72 h
CCD-18Co = experiment: Cytotoxicity against human CCD-18Co cells assessed as reduction in cell viability incubated for 72 hrs by CCK8 assay; format: functional, cell-based
[1] = molecular target: Histone-lysine N-methyltransferase SUV39H2 (Homo sapiens, UniProt Q9H5I1); experiment: Inhibition of SUV39H2 (unknown origin) using H3 histone peptide substrate and [3H]-SAM incubated for 3 hrs by microbeta counting based assay
Chain of Histone-lysine N-methyltransferase SUV39H2 (Q9H5I1 whole entry): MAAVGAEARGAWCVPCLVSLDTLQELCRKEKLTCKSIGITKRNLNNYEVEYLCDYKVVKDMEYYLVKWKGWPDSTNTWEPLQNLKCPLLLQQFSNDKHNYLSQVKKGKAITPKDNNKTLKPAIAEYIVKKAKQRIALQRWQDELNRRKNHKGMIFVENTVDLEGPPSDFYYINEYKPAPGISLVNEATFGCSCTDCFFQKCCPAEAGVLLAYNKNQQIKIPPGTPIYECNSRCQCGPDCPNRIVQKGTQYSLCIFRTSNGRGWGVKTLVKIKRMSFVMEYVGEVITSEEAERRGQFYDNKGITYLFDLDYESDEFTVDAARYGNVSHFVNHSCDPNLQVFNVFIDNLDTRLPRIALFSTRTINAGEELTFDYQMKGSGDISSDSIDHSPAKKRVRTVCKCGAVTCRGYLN

Row | SMILES | pIC50 (A549) | pIC50 [1] | further results
1 | COc1cc(OC)c(-c2cn3ccc(N4CCN(c5cnc(N6CCC(NS(=O)(=O)C7CC7)CC6)nc5)CC4)cc3n2)cc1Cl | 6.17 | – | –
2 | COc1cc(OC)c(-c2cn3ccc(-c4ccc(C(=O)NC5CCNC5)cc4)cc3n2)cc1Cl (centres undefined) | 5.27 | – | pIC50 (PC-14): 5.32; pIC50 (HCT-116): 5.43; pIC50 (HFL1): 5.27; pIC50 (CCD-18Co): 5.28
3 | COCC(=O)N1CCN(c2ccn3cc(-c4cc(Cl)c(OC)cc4OC)nc3c2)C(C)C1 (centres undefined) | – | 8.73 | –
4 | COc1cc(OC)c(-c2cn3ccc(N[C@H]4C[C@H]5CC[C@@H](C4)N5CC4CCCCC4)cc3n2)cc1Cl | 6.26 | – | –
5 | COC(=O)c1ccc(CN[C@H]2CC[C@@H](Nc3ccn4cc(-c5cc(Cl)c(OC)cc5OC)nc4c3)CC2)cc1 | – | 7.62 | –
6 | COc1cc(OC)c(-c2cn3ccc(N4CCN(Cc5ccc(C#N)nc5)CC4)cc3n2)cc1Cl | 6.02 | – | –
7 | COc1cc(OC)c(-c2cn3ccc(-c4ccc(C(=O)[C@H](C)N)cc4)cc3n2)cc1Cl | – | 7.00 | –
8 | CNCC(=O)Nc1ccc(-c2ccn3cc(-c4cc(Cl)c(OC)cc4OC)nc3c2)cc1 | – | 7.10 | –
9 | COc1cc(OC)c(-c2cn3ccc(N4CCN(c5cnc(N6CCNCC6)nc5)CC4)cc3n2)cc1Cl | – | 7.83 | –
10 | COc1cc(OC)c(-c2cn3ccc(NC(=O)[C@@H](N)CCCCN)cc3n2)cc1Cl | 5.00 | – | pIC50 (HCT-116): 5.00; pIC50 (HFL1): 5.00; pIC50 (CCD-18Co): 5.00
11 | COc1cc(OC)c(-c2cn3ccc(N[C@H]4CC[C@@H](N(C)Cc5ccc(F)cc5)CC4)cc3n2)cc1Cl | 5.89 | – | –
12 | COc1cc(OCCCN(C)C)c(-c2cn3ccc(N4CCN(C(C)=O)CC4)cc3n2)cc1Cl | 5.16 | – | pIC50 (PC-14): 5.10; pIC50 (HCT-116): 5.10; pIC50 (HFL1): 5.37; pIC50 (CCD-18Co): 5.06
13 | COc1cc(OC)c(-c2cn3ccc(N[C@H]4CC[C@@H](N(C)Cc5ccccc5F)CC4)cc3n2)cc1Cl | 6.13 | – | –
